Data taken from US8633319B2, “7-(1H-pyrazol-4-yl)-1,6-naphthyridine compounds as Syk inhibitors” (Glaxo Group Limited, priority 2010, dated 2014).
“And” between values parts separate entries of the source, which are not always exact repeats. Equal entries are not always repeated. Where two headings read alike, the source gives them in different places.

Assays:
[1] = target: T1, SYK lysate (Homo sapiens, UniProt P43405); assay: Basic Syk Enzyme Activity; format: biochemical; conditions: read-out: average pIC50 (converted)
T1 construct: Stimulation of Ramos Cells with Anti-IgM Ab to Produce Syk & Preparation of Lysates; endogenous in cells; host or cells: Ramos B cells (human Burkitt's lymphoma, clone 296.4C10, ATCC), stimulated with anti-IgM and lysed in 1% Triton X-100
Protocol: 3 μl of SYK lysate diluted 16-fold in assay buffer (20 mM TRIS pH 7.4, 0.01% BSA, 0.1% Pluronic F-68) was added to wells containing 0.1 μl of various concentrations of compound or DMSO vehicle (1.7% final) in a Greiner low volume 384 well black plate. Following 15 min pre-incubation at room temperature, the reaction was initiated by the addition of 3 μl of substrate reagent containing Y7 Sox peptide, (Invitrogen Cat. # KNZ3071, 5 μM final), ATP (35 μM final) and MgCl2 (10 mM final) in assay buffer. The reaction was incubated at room temperature before measuring fluorescence intensity (λex 360/λem 485) on an Envision plate reader (Perkin Elmer Life Sciences, Waltham, Mass., USA) at 15 min and 55 min post-substrate addition.
Ramos B Cells (human B cells of Burkitt's lymphoma, clone 296.4C10, ATCC) were cultured in suspension in growth medium (RPMI-1640, Sigma; supplemented with 2 mM L-glutamine, Gibco; 10 mM Hepes, Sigma; 1 mM sodium pyruvate, Sigma; 10% v/v heat-inactivated FCS, Gibco). Cells were grown in Corning Cellstacks (6360 cm^2) in 1 liter volume and viability and cell density were monitored daily. Cells were maintained at <1.5×10e6/ml and >92% viability.
Cells were stimulated at 20×10^6 cells/ml using 15 ug/ml (final concentration) anti-IgM antibody. Following harvest (as described above), a total of 4×10^9 cells were resuspended in 180 ml pre-warmed (37° C.) DPBS in a Corning 500 ml centrifuge bottle. 20 ml anti-IgM antibody at 150 ug/ml were added to each 500 ml centrifuge bottle (working stock made up in DPBS pre-warmed to 37° C.). Cells were incubated for exactly 5 min at 37° C. following the addition of anti IgM antibody. Following 5 min stimulation, 300 ml ice-cold DPBS were added to each bottle to stop the stimulation (temperature drops to ˜12° C.) then cells were centrifuged at 2000 rpm (Sorvall Legend RT+ centrifuge—pre-chilled to 4° C.). Cells were washed by resuspension in ice-cold DPBS and centrifugation as above. The cell pellet was then lysed in ice-cold lysis buffer containing 1% triton-x-100 at a ratio of 150 ul/1×10^7 cells (i.e. 48 ml lysis buffer). Following the addition of lysis buffer, the cells were pipetted up & down & kept on ice for 15 min. The clarified lysate was then obtained by centrifugation (Sorvall Evolution RC (SLA-1500 rotor, ˜20,000 g (˜14,500 rpm), 45 min, 4° C.).
Lysate was aliquoted, snap-frozen on dry-ice & stored at −80° C. prior to assay.
Lysis Buffer: 50 mM TRIS pH7.5+150 mM NaCl+1% Triton-X-100+2 mM EGTA+1:100 dilution inhibitor cocktails (phosphatase inhibitor cocktail set II, calbiochem cat no. 524625 & protease inhibitor cocktail set V, calbiochem cat no. 539137)

[2] = system: Salmonella typhimurium strains and Escherichia coli; assay: Bacterial Mutation Screening Assay (Ames Test); conditions: as the free base; presence and absence of S9-mix
Source text: The bacterial mutation assay (Ames Test) is a short-term reverse mutation assay specifically designed to detect a wide range of chemical substances that can produce genetic damage that leads to gene mutations (base pair substitutions and frameshift mutations).
The test employs several histidine dependent Salmonella typhimurium strains and several tryptophan dependent strains of Escherichia coli each carrying different mutations in various genes in the histidine or tryptophan operon respectively. These mutations act as hot spots for mutagens that cause DNA damage via different mechanisms.
Briefly, bacteria are cultured for 10 h prior to the test. Top agar is supplemented with trace amounts of histidine, biotin, and tryptophan and aliquoted, before adding the required test article, vehicle or positive control followed by the appropriate bacterial suspension, and either an exogenous mammalian oxidative metabolism system (S9-mix) or buffer solution. The final mixture is poured over minimal agar plates which are then inverted and incubated before scoring for revertant colonies.
Bacterial Strains routinely used are Salmonella typhimurium strains TA98, TA100 TA1535 and TA1537 and Escherichia coli WP2 uvrA (pKM101).
Assays are performed in the presence and absence of an exogenous mammalian oxidative metabolising system (S9-mix), to mimic mammalian metabolism.
The highest concentration tested is one that allows maximum exposure up to 5000 μg/plate for freely soluble compounds, or the limit of solubility or toxicity (whichever is the lower). If compound solubility is a limiting factor, the maximum concentration chosen will be the lowest concentration at which compound precipitate is observed by eye on treatment plates at the end of the incubation period.
A single mutation assay (using the plate incorporation methodology) is conducted in the presence and absence of S9-mix (consisting of 4 replicate plates for vehicle controls and 2 replicate plates for the positive controls and test article).
Plates are usually scored electronically for bacterial colony formation following inspection of the plates for signs of toxicity (i.e. reduced growth (diminution) of background lawn, the presence of pin-dot/pseudorevertant colonies and/or a reduction in colony numbers). Plates will also be evaluated (by eye) for compound precipitation. […]
The number of colonies on each plate is recorded and mean values calculated for each concentration of test article used. Mean values are also be expressed as a ratio of the mean concurrent vehicle control value (i.e. fold increase). […]

## COCn1cc(-c2cc3ncccc3c(NC[C@]3(F)CCCNC3)n2)cn1 [Example 3, N-{[(3S)-3-Fluoro-3-piperidinyl]methyl}-7-{1-[(methyloxy)methyl]-1H-pyrazol-4-yl}-1,6-naphthyridin-5-amine]
[1]; as the free base
  IC50: ≤ 100 nM and 63.1 nM
[1]; hydrochloric acid salts
  IC50: ≤ 316 nM
[2]
  Ames test result: negative

## CC(C)(C)n1cc(-c2cc3ncccc3c(NC[C@]3(F)CCCNC3)n2)cn1 [Example 2, 7-[1-(1,1-Dimethylethyl)-1H-pyrazol-4-yl]-N-{[(3S)-3-fluoro-3-piperidinyl]methyl}-1,6-naphthyridin-5-amine]
[1]; as the free base
  IC50: ≤ 100 nM and 20 nM
[1]; hydrochloric acid salts
  IC50: ≤ 316 nM
[2]
  Ames test result: negative

## CCn1cc(-c2cc3ncccc3c(OC[C@]3(F)CCCNC3)n2)cn1 [Example 4, 7-(1-Ethyl-1H-pyrazol-4-yl)-5-({[(3S)-3-fluoro-3-piperidinyl]methyl}oxy)-1,6-naphthyridine]
[1]; as the free base
  IC50: ≤ 100 nM and 7.94 nM
[1]; hydrochloric acid salts
  IC50: ≤ 316 nM
[2]
  Ames test result: negative

## CCn1cc(-c2cc3ncccc3c(NC[C@]3(F)CCCNC3)n2)cn1 [Example 1, 7-(1-Ethyl-1H-pyrazol-4-yl)-N-{[(3S)-3-fluoro-3-piperidinyl]methyl}-1,6-naphthyridin-5-amine]
[1]; as the free base
  IC50: ≤ 100 nM and 25.1 nM
[1]; hydrochloric acid salts
  IC50: ≤ 316 nM
[2]
  Ames test result: negative
